Source: US20210070748A1, “INHIBITORS OF BRUTONS TYROSINE KINASE” (Pharmacyclics LLC, priority 2015, published 2021)
Where two headings read alike, the source gives them in different places.

What was measured:
Assay type in all cases: biochemical
SRC = SRC (Homo sapiens, UniProt P12931); test: Inhibition of a panel of kinases, in vitro HotSpot kinase assay: SRC
Method: The degree of inhibition of a panel of kinases is determined using the in vitro HotSpot kinase assay (purified enzymes, ^33P-ATP, an appropriate substrate and 1 μM ATP).

JAK3 = target: T1, JAK3 (Homo sapiens, UniProt P52333); test: Inhibition of a panel of kinases, in vitro HotSpot kinase assay: JAK3; conditions: read-out: IC50 JAK3
T1 sequence (P52333 1-1124): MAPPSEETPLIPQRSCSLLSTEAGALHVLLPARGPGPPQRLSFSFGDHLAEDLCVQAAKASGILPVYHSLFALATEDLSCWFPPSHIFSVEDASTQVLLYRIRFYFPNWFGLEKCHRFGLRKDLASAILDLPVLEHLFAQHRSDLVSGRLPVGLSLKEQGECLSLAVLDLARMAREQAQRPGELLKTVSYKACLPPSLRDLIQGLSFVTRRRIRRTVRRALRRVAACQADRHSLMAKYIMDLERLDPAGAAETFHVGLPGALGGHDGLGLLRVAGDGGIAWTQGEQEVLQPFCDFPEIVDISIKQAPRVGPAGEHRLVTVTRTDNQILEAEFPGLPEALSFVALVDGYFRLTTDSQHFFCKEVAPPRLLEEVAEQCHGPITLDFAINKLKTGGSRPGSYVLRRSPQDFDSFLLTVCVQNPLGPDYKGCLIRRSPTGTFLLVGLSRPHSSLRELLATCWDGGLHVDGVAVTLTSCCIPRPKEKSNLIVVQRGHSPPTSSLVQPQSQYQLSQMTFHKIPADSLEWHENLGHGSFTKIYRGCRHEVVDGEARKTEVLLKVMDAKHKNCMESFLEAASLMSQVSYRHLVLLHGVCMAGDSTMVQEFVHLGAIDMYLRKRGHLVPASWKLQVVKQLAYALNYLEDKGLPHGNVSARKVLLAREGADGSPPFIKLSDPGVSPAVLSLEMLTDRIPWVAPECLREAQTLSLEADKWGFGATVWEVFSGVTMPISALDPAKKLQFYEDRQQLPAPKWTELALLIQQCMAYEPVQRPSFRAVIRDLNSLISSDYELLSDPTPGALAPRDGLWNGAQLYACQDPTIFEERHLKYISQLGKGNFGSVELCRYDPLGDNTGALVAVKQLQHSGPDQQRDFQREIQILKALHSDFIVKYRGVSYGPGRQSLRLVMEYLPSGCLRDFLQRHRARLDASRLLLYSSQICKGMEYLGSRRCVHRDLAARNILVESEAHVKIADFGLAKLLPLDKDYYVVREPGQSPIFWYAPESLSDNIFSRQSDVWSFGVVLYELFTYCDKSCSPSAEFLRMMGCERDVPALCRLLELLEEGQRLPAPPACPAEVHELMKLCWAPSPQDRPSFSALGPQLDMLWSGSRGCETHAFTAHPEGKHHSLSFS

BTK-WT = target: T2, BTK-WT (Homo sapiens, UniProt Q06187); test: Btk in vitro inhibitory activity (one of Method A TR-FRET, Method B electrophoretic mobility shift, Method C radiometric filter binding); conditions: read-out: IC50 BTK-WT
T2 construct: purified from insect cells as a full-length construct containing an N-terminal 6X-His tag; His6 (N); made in house; host or cells: insect cells (baculovirus Sf21 in Method B)

[1] = D-compounds panel data, 1 μM ATP

SRC, sequence (P12931 whole entry): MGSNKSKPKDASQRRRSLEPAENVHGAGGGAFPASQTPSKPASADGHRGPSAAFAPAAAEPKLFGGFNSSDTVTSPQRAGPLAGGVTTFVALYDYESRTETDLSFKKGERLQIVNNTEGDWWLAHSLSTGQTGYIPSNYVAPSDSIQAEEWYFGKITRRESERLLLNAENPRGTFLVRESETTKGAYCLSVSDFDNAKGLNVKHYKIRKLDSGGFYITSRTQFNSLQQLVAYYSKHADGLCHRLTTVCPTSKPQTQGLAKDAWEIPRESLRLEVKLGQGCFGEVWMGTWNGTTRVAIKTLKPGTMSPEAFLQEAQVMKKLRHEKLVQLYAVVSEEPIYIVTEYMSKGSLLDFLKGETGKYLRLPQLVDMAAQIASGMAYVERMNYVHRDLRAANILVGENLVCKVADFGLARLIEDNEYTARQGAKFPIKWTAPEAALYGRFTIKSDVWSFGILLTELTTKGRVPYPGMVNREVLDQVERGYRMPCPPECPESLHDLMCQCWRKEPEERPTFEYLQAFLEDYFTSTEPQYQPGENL
T2 sequence (Q06187 whole entry): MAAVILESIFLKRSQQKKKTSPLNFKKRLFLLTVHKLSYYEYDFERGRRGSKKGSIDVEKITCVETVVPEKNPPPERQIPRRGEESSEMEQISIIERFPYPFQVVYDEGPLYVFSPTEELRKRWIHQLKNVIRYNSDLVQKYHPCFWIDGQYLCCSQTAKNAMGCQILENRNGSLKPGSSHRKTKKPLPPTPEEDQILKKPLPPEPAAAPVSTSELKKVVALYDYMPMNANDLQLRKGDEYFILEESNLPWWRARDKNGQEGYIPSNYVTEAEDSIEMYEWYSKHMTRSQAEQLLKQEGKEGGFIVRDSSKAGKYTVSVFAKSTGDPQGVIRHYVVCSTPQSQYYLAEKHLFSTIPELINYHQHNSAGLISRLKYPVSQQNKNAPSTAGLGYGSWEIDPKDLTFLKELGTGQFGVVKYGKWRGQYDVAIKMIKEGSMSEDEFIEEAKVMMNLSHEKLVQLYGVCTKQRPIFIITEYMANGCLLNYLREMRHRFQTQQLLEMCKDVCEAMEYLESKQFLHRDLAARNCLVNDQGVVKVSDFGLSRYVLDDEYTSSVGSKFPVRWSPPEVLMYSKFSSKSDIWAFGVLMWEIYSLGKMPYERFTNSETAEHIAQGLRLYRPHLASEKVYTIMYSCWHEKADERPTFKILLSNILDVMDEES

Row | IC50 (SRC; [1]) [nM] | IC50 (JAK3; [1]) [nM] | IC50 (BTK-WT; D-compounds panel data) [nM] | Compound | IC50 (SRC; E compounds, Table 17) [nM] | IC50 (JAK3; E compounds, Table 17) [nM] | IC50 (BTK-WT; E compounds, Table 17) [nM]
1 | – | – | – | C=CC(=O)N1CC[C@@H](N(C)c2cnc(C(N)=O)c(Nc3ccc(C4(C)CCN(C5CCCC5)CC4)cc3)n2)C1 [Example E-106, (R)-5-((1-acryloylpyrrolidin-3-yl)(methyl)amino)-3-(4-(1-cyclopentyl-4-methylpiperidin-4-yl)phenylamino)pyrazine-2-carboxamide] | ≤ 10 | < 10 | ≤ 10
2 | 100 to 1000 | 100 to 1000 | 10 to 100 | CN1CCN(C(=O)c2ccc(Nc3nc(N[C@H]4CC[C@H](NC(=O)N(C)C)CC4)cnc3C(N)=O)cc2)CC1 [Example D-69, 3-{[4-(4-methylpiperazine-1-carbonyl)phenyl]amino}-5-{[(1 r,4r)-4-[(dimethylcarbamoyl)amino]cyclohexyl]amino}pyrazine-2-carboxamide] | – | – | –
